Measurements taken from PubChem BioAssay AID540269 (Sanford-Burnham Center for Chemical Genomics, 2011).
pIC50: −log10 of the molar value. The source made the active and inactive calls. No rule for the calls is given here.

Biological target: glucose-6-phosphate dehydrogenase-6-phosphogluconolactonase (Plasmodium falciparum 3D7)
Assay: PfG6PD enzyme inhibitors, kinetic NADPH readout, dose response, orthogonal assay, biochemical, kinetic NADPH detection (AID 540269)
Settings: purified PfG6PD-6PGL

SMILES	pIC50	IC50
Clc1ccc2nc(-c3ccc4c(c3)OCO4)cn2c1	4.39	
COc1c2ccoc2c(OCC=C(C)C)c2oc(=O)ccc12		> 80 µM (inactive)
COc1cc(/C=C/C(=O)c2ccc([N+](=O)[O-])o2)ccc1O		> 80 µM (inactive)
O=c1c2ccccc2sn1-c1ccc(S(=O)(=O)N2CCCC2)cc1	4.55	
O=C(Nc1ccc([N+](=O)[O-])cc1Cl)c1cc(Cl)ccc1O		> 80 µM (inactive)
O=C(O)CSc1cc(NS(=O)(=O)c2ccc(Cl)cc2)c2ccccc2c1O	4.33	
c1cc(CNc2ccc3c(c2)OCO3)ccn1		> 80 µM (inactive)
CCOC(=O)c1ccc(/[N+]([O-])=C/c2ccccc2)cc1		> 80 µM (inactive)
CC1(C)Cc2c(sc3nc4n(-c5ccccc5)c(=O)c(CCC(=O)O)nn4c(=O)c23)CO1	4.93	
O=C1NC(=O)C(=Cc2ccc(-c3ccccc3[N+](=O)[O-])o2)C(=O)N1	4.16	
Cc1ccc(S(=O)(=O)SCCCSS(=O)(=O)c2ccc(C)cc2)cc1	4.45	
Cc1ccc(S(=O)(=O)C=CS(=O)(=O)c2ccc(C)cc2)cc1	4.39	
O=c1c2cc(F)ccc2sn1-c1ccccc1Cl	4.90	
Cc1nc(COC(=O)c2cc(O)c3ccccc3c2O)cs1		> 80 µM (inactive)
O=S(=O)(NCc1csc(-c2ccccc2)n1)c1ccc(Cl)s1		> 80 µM (inactive)
COc1ccc(C(=O)Nc2sc3c(c2C(=O)O)CC(C)(C)OC3)cc1	4.39	
O=C1CCC[C@@H]2[C@@H](Cc3ccccc3)[C@H](N3CCN(c4ccccc4)CC3)C[C@@H]3CCN1[C@@H]32		> 80 µM (inactive)
Clc1ccc2nc(-c3ccc(Br)s3)cn2c1		> 80 µM (inactive)
Cc1ccc(-c2nc(N)s[n+]2-c2ccccc2)cc1		> 80 µM (inactive)
COc1cc(C(=O)ON=C2C=C(C)C(=O)C(C)=C2)cc(OC)c1OC		> 80 µM (inactive)
Cn1c(=O)c2c([nH]c(=S)n2CCCc2ccccc2)n(C)c1=O	4.14	
O=C1NC(=O)N(c2ccccc2)C(=O)/C1=C/c1ccc([N+](=O)[O-])s1		> 80 µM (inactive)
COc1cc(NC(C)CCc2ccccc2)cc(OC)c1OC (stereo not given)		> 80 µM (inactive)
N#CC(C#N)=C1C=CC=CN1/C(=C\c1ccccc1Cl)C(=O)c1ccccc1		> 80 µM (inactive)
CC(C)c1cc2c(c(O)c1O)[C@@]13CCCC(C)(C)C1CC2OC3=O (stereo not given in full)	4.23	

SMILES	pIC50	IC50
Cc1ccc(C)c(-n2sc3ccc(F)cc3c2=O)c1	4.94	
Cc1nnc(SCC(=O)c2cc(C)n(-c3ccc4c(c3)OCO4)c2C)s1		> 80 µM (inactive)
COc1cc(N(C)C)ccc1C=c1c2ccccc2n2c1cc(-c1ccccc1)[n+]2C		> 80 µM (inactive)
COc1cc(NCCCn2ccc(NC(=O)OCc3ccccc3)nc2=O)cc(OC)c1OC		> 80 µM (inactive)
Cc1ccc(/C=C2\C(=O)NC(=S)N(c3ccccc3F)C2=O)s1		> 80 µM (inactive)
Cc1ccc(/C=C/C(=O)NCCc2cccc(Cl)c2)o1		> 80 µM (inactive)
O=C(CCSCCC(=O)NN=Cc1ccccc1)NN=Cc1ccccc1		> 80 µM (inactive)
CN1CCc2cccc3c2[C@@H]1Cc1ccc(O)c(O)c1-3		> 80 µM (inactive)
COc1ccc(NC(=S)N(CCC(C)C)C2CCN(C(C)C)CC2)cc1Cl	4.25	
C=CCN=c1scc(-c2ccco2)n1/N=C/c1ccc(O)c(O)c1O	4.23	
CCc1c(C(=O)Nc2ccccc2)c(C)[nH]c(=S)c1C#N		> 80 µM (inactive)
CCOc1ccc(S(=O)(=O)Nc2cc(SCC(=O)O)c(O)c3ccccc23)cc1	4.32	
Cn1cc(S(=O)(=O)CC(=O)N2CCc3ccccc32)c2ccccc21		> 80 µM (inactive)
Cc1cc(NC(=O)c2oc3ccccc3c2C)ccc1-n1cnnn1	4.83	
CC1=C(C)CS(=O)N(S(=O)(=O)c2ccc(Cl)cc2)C1 (stereo not given)		> 80 µM (inactive)
CCn1c(SCC(=O)Nc2ccccc2OC)nnc1-c1cnccn1		> 80 µM (inactive)
CCC(C)c1ccccc1OCCn1ccnc1 (stereo not given)		> 80 µM (inactive)
CC(C)(C)NC(=O)COc1ccc(CNc2ccc3[nH]c(=O)[nH]c3c2)cc1	4.98	
CS(=O)(=O)c1ccc(N)c(SSc2cc(S(C)(=O)=O)ccc2N)c1	4.82	
O=C(COC(=O)c1cnccn1)c1ccc([N+](=O)[O-])cc1		> 80 µM (inactive)
CCCCCCCCSC1=CC(=O)C(OC)=C(OC)C1=O		> 80 µM (inactive)
Cc1c(N=C2C=C(Br)C(=O)C(Br)=C2)c(=O)n(-c2ccccc2)n1C		> 80 µM (inactive)
COc1cccc(C2(c3cccc(OC)c3)CC2C(=O)Nc2ccc(F)cc2)c1 (stereo not given)		> 80 µM (inactive)
CCC1(CC)Cc2ccccc2C(N)=C1C#N		> 80 µM (inactive)
O=C(CNC(=O)c1ccc(Br)cc1)NCC(=O)OCC(=O)c1ccc([N+](=O)[O-])cc1		> 80 µM (inactive)

SMILES	pIC50	IC50
C=CCSc1nnc(NC(=O)c2ccc(Cl)nc2)s1		> 80 µM (inactive)
COc1ccc(/C=C/c2nc3ccccc3n2Cc2ccc(OC)c(OC)c2)cc1	4.29	
COc1ccc(C(=O)Nc2nnc(S(=O)(=O)N3CCOCC3)s2)cc1	4.48	
CCN1CCCC1CNC(=O)c1ccc2c(c1)NC(=O)/C(=C\c1ccccc1Cl)S2 (stereo not given)	5.10	
Cc1ccc2nc3sc(C(=O)N4CCOCC4)c(N)c3cc2c1	4.43	
COc1cc(-c2cc(=O)c3c(O)c(OC)c(OC)c(O)c3o2)ccc1O	4.39	
Cc1ccc(S(=O)(=O)Oc2cccc(/C=N/Nc3ccc(C(=O)O)cc3)c2)cc1	4.38	
COc1ccc(/C=C/c2nc3ccccc3n2C)cc1	4.75	
Oc1cc(CNCc2ccccc2)c(O)cc1CNCc1ccccc1	4.27	
CN(C)c1ccc(C=c2c3cc([N+](=O)[O-])ccc3n3c2cc(-c2ccccc2)[n+]3C)cc1	4.45	
COc1cc(SSc2cc(OC)cc([N+](=O)[O-])c2N)c(N)c([N+](=O)[O-])c1	4.35	
CCOC(=O)c1c(OCC)[nH]c2c1cc(O)c1ccccc12		> 80 µM (inactive)
CCC(C)(C)c1nnc(NC(=O)C2CCN(C(=O)c3ccco3)CC2)s1		> 80 µM (inactive)
COc1cc(N)c2ncccc2c1OC		> 80 µM (inactive)
S=C(NN=Cc1ccccn1)N(Cc1ccccn1)Cc1ccccn1	4.53	
COc1ccc(N=C2C(=S)N(c3ccc(OC)cc3)C(=NS(=O)(=O)c3ccccc3)N2c2ccccc2)cc1		> 80 µM (inactive)
N#CC1=C(N)Oc2c(O)cc3ccccc3c2C1c1ccsc1 (stereo not given)	4.25	
Cc1cc(C)nc(SSc2nc(C)cc(C)n2)n1	4.17	
CCOC(=O)c1c(C)n(-c2ccc(C)cc2)c2c(C(C(C)=O)C(=O)O)c(Br)c(O)c(O)c12 (stereo not given)	4.24	
CC(=O)Nc1cc(OC(C)=O)c2nonc2c1OC(C)=O		> 80 µM (inactive)
Cc1ccc(C(=O)/C=C/C(=O)c2ccc(C)cc2)cc1		> 80 µM (inactive)
CCN(CC)C(=O)c1c(C)[nH]c(=S)c(C#N)c1-c1ccco1		> 80 µM (inactive)
Cc1noc(C(=O)Nc2sc3c(c2C#N)CCC3)c1Cl		> 80 µM (inactive)
O=S(=O)(Nc1cc(Sc2ncn[nH]2)c(O)c2ccccc12)c1ccccc1	4.62	
COc1cc(NCc2ccccc2)c2ncn(C(C)C)c2c1		> 80 µM (inactive)
